Where two headings read alike, the source gives them in different places.
Tests used:
Assay type in all cases: cell-based
Parameters in all cases: key: D: There is no sterilization effect.; C: There is a sterilization effect in step (1) but no sterilization effect in step (2).; B: There is a sterilization effect up to step (2) but no sterilization effect in step (3).; A: There is a sterilization effect up to step (3)
[1] = tested on: Pseudomonas anguilliseptica NCMB1950; assay: Comparison test of sterilization effects against various food poisoning microbes
[2] = tested on: Plesiomonas shigelloides KX-P1945; assay: as above
[3] = tested on: Salmonella serotype Enteritidis KX-S148; assay: as above
[4] = tested on: Aeromonas hydrophila KX-A428; assay: as above
[5] = tested on: Shigella flexneri subtype 1b KX-H273; assay: as above
[6] = tested on: Enterotoxigenic Escherichia coli RIMD 0509267; assay: as above
[7] = tested on: Vibrio mimicus KX-M5; assay: as above
[8] = tested on: Salmonella serotype Stanley KX-S141; assay: as above
[9] = tested on: Vibrio cholerae non-O1 non-O139 KX-N105
[10] = tested on: Vibrio parahaemolyticus AQ3815; assay: Comparison test of sterilization effects against various food poisoning microbes
[11] = tested on: Clostridium perfringens NCTC8237
[12] = tested on: Shigella dysenteriae serotype 2 KX-H214
[13] = tested on: Salmonella serotype Anatum KX-S152; assay: Comparison test of sterilization effects against various food poisoning microbes
[14] = tested on: Bacillus cereus Kyoto 1; assay: as above
[15] = tested on: Salmonella serotype Krefeld KX-S124; assay: as above
[16] = Table 7, test microbe solution without yeast extract
[17] = Table 8, yeast extract 4 weight % blended in test microbe solution

| Structure (SMILES) | Sterilization effect [1, 16] | Sterilization effect [1, 17] | Sterilization effect [2, 16] | Sterilization effect [2, 17] | Sterilization effect [3, 16] | Sterilization effect [3, 17] | Sterilization effect [4, 16] | Sterilization effect [4, 17] | Sterilization effect [5, 16] | Sterilization effect [5, 17] | Sterilization effect [6, 16] | Sterilization effect [6, 17] | Sterilization effect [7, 16] | Sterilization effect [7, 17] | Sterilization effect [8, 16] | Sterilization effect [8, 17] | Sterilization effect [9, 16] | Sterilization effect [9, 17] | Sterilization effect [10, 16] | Sterilization effect [10, 17] | other results |
| --- | --- | --- | --- | --- | --- | --- | --- | --- | --- | --- | --- | --- | --- | --- | --- | --- | --- | --- | --- | --- | --- |
| CCO [EtOH 30%, ethanol] | B | B | B | B | C | C | B | C | C | D | D | D | C | C | C | C | C | C | B | C | Sterilization effect [11, 16]: D; Sterilization effect [11, 17]: D; Sterilization effect [12, 16]: C; Sterilization effect [12, 17]: C; Sterilization effect [13, 16]: C; Sterilization effect [13, 17]: C; Sterilization effect [14, 16]: C; Sterilization effect [14, 17]: D; Sterilization effect [15, 16]: C; Sterilization effect [15, 17]: C |
| [Na+].[O-]Cl [S.H 150 ppm, sodium hypochlorite] | A | D | A | C | A | D | A | D | A | D | A | D | A | D | A | D | A | D | A | C | Sterilization effect [11, 16]: A; Sterilization effect [11, 17]: D; Sterilization effect [12, 16]: A; Sterilization effect [12, 17]: C; Sterilization effect [13, 16]: A; Sterilization effect [13, 17]: D; Sterilization effect [14, 16]: A; Sterilization effect [14, 17]: D; Sterilization effect [15, 16]: A; Sterilization effect [15, 17]: D |

Source: patent publication US9060541B2, “Sterilizer for foods” (Kawakami Co., Ltd., priority 2009, dated 2015)
